# Source: ChEMBL document CHEMBL3217499, “Membrane disrupting antimicrobial peptide dendrimers with multiple amino termini” (Medchemcomm, 2012)
# Where a SMILES comes first, the peptide text is derived from it. Bridges are numbered along the chain shown (N, C = ends). Roman numbers before positions name the chains, in order. Side-chain parts run from the residue outwards. [ ]: non-standard residue; d: D form. The star is where a group is joined. X3 = CC(=O)N[C@@H](CC(C)C)C(=O)NCCCC[C@H](NC(=O)[C@H](CC(C)C)NC(C)=O)C(=O)*; LeuLys(Leu) = CC(C)C[C@H](N)C(=O)NCCCC[C@H](NC(=O)[C@@H](N)CC(C)C)C(=O)*; X1 = CC(C)C[C@H](N)C(=O)NC[C@H](NC(=O)[C@@H](N)CC(C)C)C(=O)*; X4 = C[C@H](N)C(=O)NCCCC[C@H](NC(=O)[C@H](C)N)C(=O)*; Dap = NC[C@H](N)C(=O)O
# Experiments:
# Pseudomonas aeruginosa [1] = assay: Antibacterial activity against Pseudomonas aeruginosa PAO1 after 18 to 24 hrs by broth microdilution assay; format: functional
# [2] = Hemolytic activity in human RBC after 4 hrs; format: ADME, cell-based; settings: erythrocyte
# Escherichia coli [3] = assay: Antibacterial activity against Escherichia coli DH5[alpha] after 18 to 24 hrs by broth microdilution assay; format: functional
# Bacillus subtilis = assay: Antibacterial activity against Bacillus subtilis BR151 after 18 to 24 hrs by broth microdilution assay; format: functional
# Enterococcus faecalis [4] = assay: Antibacterial activity against Enterococcus faecalis Van BE80-8 by broth microdilution assay; format: functional
# Escherichia coli [5] = assay: Antibacterial activity against Escherichia coli ATCC 25922 by broth microdilution assay; format: functional
# Pseudomonas aeruginosa [6] = assay: Antibacterial activity against Pseudomonas aeruginosa PAO1 HS by broth microdilution assay; format: functional
# Pseudomonas aeruginosa [7] = assay: Antibacterial activity against Pseudomonas aeruginosa ATCC 27853 by broth microdilution assay; format: functional
# Enterococcus faecalis [8] = assay: Antibacterial activity against Enterococcus faecalis ATCC 29212 by broth microdilution assay; format: functional
# Pseudomonas aeruginosa [9] = assay: Antibacterial activity against Pseudomonas aeruginosa 8S/H by broth microdilution assay; format: functional
# Staphylococcus aureus [10] = assay: Antibacterial activity against methicillin-resistant Staphylococcus aureus 42080 by broth microdilution assay; format: functional
# Pseudomonas aeruginosa [11] = assay: Antibacterial activity against Pseudomonas aeruginosa K799/61 by broth microdilution assay; format: functional
# Staphylococcus aureus [12] = assay: Antibacterial activity against Staphylococcus aureus ATCC 29213 by broth microdilution assay; format: functional
# Pseudomonas aeruginosa [13] = assay: Antibacterial activity against Pseudomonas aeruginosa K799/WT by broth microdilution assay; format: functional
Compound,MIC (Pseudomonas aeruginosa [1]) [µg/mL],MHC [2] [µg/mL],MIC (Escherichia coli [3]) [µg/mL],MIC (Bacillus subtilis) [µg/mL],MIC (Enterococcus faecalis [4]) [µg/mL],MIC (Escherichia coli [5]) [µg/mL],MIC (Pseudomonas aeruginosa [6]) [µg/mL],MIC (Pseudomonas aeruginosa [7]) [µg/mL],MIC (Enterococcus faecalis [8]) [µg/mL],MIC (Pseudomonas aeruginosa [9]) [µg/mL],MIC (Staphylococcus aureus [10]) [µg/mL],MIC (Pseudomonas aeruginosa [11]) [µg/mL],MIC (Staphylococcus aureus [12]) [µg/mL],MIC (Pseudomonas aeruginosa [13]) [µg/mL]
CC(C)C[C@@H](N)C(=O)NCCCC[C@H](NC(=O)[C@H](N)CC(C)C)C(=O)N[C@H](CC(C)C)C(=O)NCCCC[C@H](NC(=O)[C@@H](CC(C)C)NC(=O)[C@H](CCCCNC(=O)[C@H](N)CC(C)C)NC(=O)[C@H](N)CC(C)C)C(=O)N[C@H](Cc1ccccc1)C(=O)NCCCC[C@H](NC(=O)[C@@H](Cc1ccccc1)NC(=O)[C@H](CCCCNC(=O)[C@@H](CC(C)C)NC(=O)[C@H](CCCCNC(=O)[C@H](N)CC(C)C)NC(=O)[C@H](N)CC(C)C)NC(=O)[C@@H](CC(C)C)NC(=O)[C@H](CCCCNC(=O)[C@H](N)CC(C)C)NC(=O)[C@H](N)CC(C)C)C(=O)N[C@H](CCCCN)C(N)=O,60,> 10000,15,2.5,,,,,,,,,,
CC(C)C[C@H](N)C(=O)NCCCC[C@H](NC(=O)[C@@H](N)CC(C)C)C(=O)N[C@@H](C)C(=O)NCCCC[C@H](NC(=O)[C@H](C)NC(=O)[C@H](CCCCNC(=O)[C@@H](N)CC(C)C)NC(=O)[C@@H](N)CC(C)C)C(=O)N[C@@H](Cc1ccccc1)C(=O)NCCCC[C@H](NC(=O)[C@H](Cc1ccccc1)NC(=O)[C@H](CCCCNC(=O)[C@H](C)NC(=O)[C@H](CCCCNC(=O)[C@@H](N)CC(C)C)NC(=O)[C@@H](N)CC(C)C)NC(=O)[C@H](C)NC(=O)[C@H](CCCCNC(=O)[C@@H](N)CC(C)C)NC(=O)[C@@H](N)CC(C)C)C(=O)N[C@@H](CCCCN)C(N)=O (I: H-LK(Leu)AK([Ala-LeuLys(Leu)])FKK-NH2 / II: H-LK(Leu)AK([Ala-LeuLys(Leu)])F; amide I:6-II:C),> 100,> 2000,> 100,67,,,,,,,,,,
CC(=O)N[C@@H](CC(C)C)C(=O)NCCCC[C@H](NC(=O)[C@H](CC(C)C)NC(C)=O)C(=O)N[C@@H](Cc1ccccc1)C(=O)NCCCC[C@H](NC(=O)[C@H](Cc1ccccc1)NC(=O)[C@H](CCCCNC(=O)[C@H](CC(C)C)NC(C)=O)NC(=O)[C@H](CC(C)C)NC(C)=O)C(=O)N1CCC[C@H]1C(=O)NCCCC[C@H](NC(=O)[C@@H]1CCCN1C(=O)[C@H](CCCCNC(=O)[C@H](Cc1ccccc1)NC(=O)[C@H](CCCCNC(=O)[C@H](CC(C)C)NC(C)=O)NC(=O)[C@H](CC(C)C)NC(C)=O)NC(=O)[C@H](Cc1ccccc1)NC(=O)[C@H](CCCCNC(=O)[C@H](CC(C)C)NC(C)=O)NC(=O)[C@H](CC(C)C)NC(C)=O)C(=O)N[C@@H](CCCCN)C(N)=O (I: Ac-LK([Leu-Ac])FK([Phe-X3])PKK-NH2 / II: Ac-LK([Leu-Ac])FK([Phe-X3])P; amide I:6-II:C),,,,,> 32,> 32,> 32,> 32,> 32,> 32,> 32,> 32,> 32,> 32
CC(C)C[C@H](N)C(=O)NC[C@H](NC(=O)[C@@H](N)CC(C)C)C(=O)N[C@@H](Cc1ccccc1)C(=O)NC[C@H](NC(=O)[C@H](Cc1ccccc1)NC(=O)[C@H](CNC(=O)[C@@H](N)CC(C)C)NC(=O)[C@@H](N)CC(C)C)C(=O)N1CCC[C@H]1C(=O)NC[C@H](NC(=O)[C@@H]1CCCN1C(=O)[C@H](CNC(=O)[C@H](Cc1ccccc1)NC(=O)[C@H](CNC(=O)[C@@H](N)CC(C)C)NC(=O)[C@@H](N)CC(C)C)NC(=O)[C@H](Cc1ccccc1)NC(=O)[C@H](CNC(=O)[C@@H](N)CC(C)C)NC(=O)[C@@H](N)CC(C)C)C(=O)N[C@@H](CCCCN)C(N)=O (I: H-L[Dap](Leu)F[Dap]([Phe-X1])P[Dap]K-NH2 / II: H-L[Dap](Leu)F[Dap]([Phe-X1])P; amide I:6-II:C),20,> 2000,15,3.1,> 32,> 32,> 32,> 32,> 32,> 32,> 32,> 32,> 32,> 32
CC(C)C[C@@H](N)C(=O)NCCCC[C@H](NC(=O)[C@H](N)CC(C)C)C(=O)N[C@H](Cc1ccccc1)C(=O)NCCCC[C@H](NC(=O)[C@@H](Cc1ccccc1)NC(=O)[C@H](CCCCNC(=O)[C@H](N)CC(C)C)NC(=O)[C@H](N)CC(C)C)C(=O)N1CCC[C@@H]1C(=O)NCCCC[C@H](NC(=O)[C@H]1CCCN1C(=O)[C@H](CCCCNC(=O)[C@@H](Cc1ccccc1)NC(=O)[C@H](CCCCNC(=O)[C@H](N)CC(C)C)NC(=O)[C@H](N)CC(C)C)NC(=O)[C@@H](Cc1ccccc1)NC(=O)[C@H](CCCCNC(=O)[C@H](N)CC(C)C)NC(=O)[C@H](N)CC(C)C)C(=O)N[C@H](CCCCN)C(N)=O,60,> 10000,11,4.4,,,,,,,,,,
CC(C)C[C@H](N)C(=O)NCCCC[C@H](NC(=O)[C@@H](N)CC(C)C)C(=O)N[C@@H](Cc1ccccc1)C(=O)NCCCC[C@H](NC(=O)[C@H](Cc1ccccc1)NC(=O)[C@H](CCCCNC(=O)[C@@H](N)CC(C)C)NC(=O)[C@@H](N)CC(C)C)C(=O)N1CCC[C@H]1C(=O)NCCCC[C@H](NC(=O)[C@@H]1CCCN1C(=O)[C@H](CCCCNC(=O)[C@H](Cc1ccccc1)NC(=O)[C@H](CCCCNC(=O)[C@@H](N)CC(C)C)NC(=O)[C@@H](N)CC(C)C)NC(=O)[C@H](Cc1ccccc1)NC(=O)[C@H](CCCCNC(=O)[C@@H](N)CC(C)C)NC(=O)[C@@H](N)CC(C)C)C(=O)N[C@@H](CCCCN)C(N)=O,66,> 10000,19,2,> 32,> 32,> 32,> 32,> 32,> 32,> 32,> 32,> 32,> 32
CC(C)C[C@H](NC(=O)[C@H](CCCCNC(=O)[C@H](C)N)NC(=O)[C@H](C)N)C(=O)NCCCC[C@H](NC(=O)[C@H](CC(C)C)NC(=O)[C@H](CCCCNC(=O)[C@H](C)N)NC(=O)[C@H](C)N)C(=O)N[C@@H](Cc1ccccc1)C(=O)NCCCC[C@H](NC(=O)[C@H](Cc1ccccc1)NC(=O)[C@H](CCCCNC(=O)[C@H](CC(C)C)NC(=O)[C@H](CCCCNC(=O)[C@H](C)N)NC(=O)[C@H](C)N)NC(=O)[C@H](CC(C)C)NC(=O)[C@H](CCCCNC(=O)[C@H](C)N)NC(=O)[C@H](C)N)C(=O)N[C@@H](CCCCN)C(N)=O (I: H-AK(Ala)LK([Leu-X4])FKK-NH2 / II: H-AK(Ala)LK([Leu-X4])F; amide I:6-II:C),67,1000,> 100,> 100,,,,,,,,,,
CC(C)C[C@H](NC(=O)[C@H](CCCCNC(=O)[C@@H](N)CC(C)C)NC(=O)[C@@H](N)CC(C)C)C(=O)NCCCC[C@H](NC(=O)[C@H](CC(C)C)NC(=O)[C@H](CCCCNC(=O)[C@@H](N)CC(C)C)NC(=O)[C@@H](N)CC(C)C)C(=O)N[C@@H](C)C(=O)NCCCC[C@H](NC(=O)[C@H](C)NC(=O)[C@H](CCCCNC(=O)[C@H](CC(C)C)NC(=O)[C@H](CCCCNC(=O)[C@@H](N)CC(C)C)NC(=O)[C@@H](N)CC(C)C)NC(=O)[C@H](CC(C)C)NC(=O)[C@H](CCCCNC(=O)[C@@H](N)CC(C)C)NC(=O)[C@@H](N)CC(C)C)C(=O)N[C@@H](CCCCN)C(N)=O (I: H-LK(Leu)LK([Leu-LeuLys(Leu)])AKK-NH2 / II: H-LK(Leu)LK([Leu-LeuLys(Leu)])A; amide I:6-II:C),67,> 2000,> 100,4.5,,,,,,,,,,
CC(C)C[C@H](NC(=O)[C@H](CCCCNC(=O)[C@@H](N)CC(C)C)NC(=O)[C@@H](N)CC(C)C)C(=O)NCCCC[C@H](NC(=O)[C@H](CC(C)C)NC(=O)[C@H](CCCCNC(=O)[C@@H](N)CC(C)C)NC(=O)[C@@H](N)CC(C)C)C(=O)N[C@@H](Cc1ccccc1)C(=O)NCCCC[C@H](NC(=O)[C@H](Cc1ccccc1)NC(=O)[C@H](CCCCNC(=O)[C@H](CC(C)C)NC(=O)[C@H](CCCCNC(=O)[C@@H](N)CC(C)C)NC(=O)[C@@H](N)CC(C)C)NC(=O)[C@H](CC(C)C)NC(=O)[C@H](CCCCNC(=O)[C@@H](N)CC(C)C)NC(=O)[C@@H](N)CC(C)C)C(=O)N[C@@H](C)C(N)=O (I: H-LK(Leu)LK([Leu-LeuLys(Leu)])FKA-NH2 / II: H-LK(Leu)LK([Leu-LeuLys(Leu)])F; amide I:6-II:C),≥ 100,31,15,2,,,,,,,,,,
CC(=O)N[C@@H](CC(C)C)C(=O)NCCCC[C@H](NC(=O)[C@H](CC(C)C)NC(C)=O)C(=O)N[C@@H](CC(C)C)C(=O)NCCCC[C@H](NC(=O)[C@H](CC(C)C)NC(=O)[C@H](CCCCNC(=O)[C@H](CC(C)C)NC(C)=O)NC(=O)[C@H](CC(C)C)NC(C)=O)C(=O)N[C@@H](Cc1ccccc1)C(=O)NCCCC[C@H](NC(=O)[C@H](Cc1ccccc1)NC(=O)[C@H](CCCCNC(=O)[C@H](CC(C)C)NC(=O)[C@H](CCCCNC(=O)[C@H](CC(C)C)NC(C)=O)NC(=O)[C@H](CC(C)C)NC(C)=O)NC(=O)[C@H](CC(C)C)NC(=O)[C@H](CCCCNC(=O)[C@H](CC(C)C)NC(C)=O)NC(=O)[C@H](CC(C)C)NC(C)=O)C(=O)N[C@@H](CCCCN)C(N)=O (I: Ac-LK([Leu-Ac])LK([Leu-X3])FKK-NH2 / II: Ac-LK([Leu-Ac])LK([Leu-X3])F; amide I:6-II:C),,,,,> 32,> 32,> 32,> 32,> 32,> 32,> 32,> 32,> 32,> 32
